PubChem BioAssay (NCI)
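Grown in 96-well plates, cells were treated for 48 hours with each compound at five concentrations. Insufficient inhibition: endpoint recorded as highest concentration tested. At the TGI there is no net growth.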

Tests used:
Test in all cases: NCI anticancer screen, dose series, 48 h
KM20L2 colon = test system: KM20L2 colon
DLD-1 colon = test system: DLD-1 colon
M19-MEL melanoma = test system: M19-MEL melanoma
LXFL 529 NSCLC = test system: LXFL 529 NSCLC
SNB-78 CNS = test system: SNB-78 CNS
XF 498 CNS = test system: XF 498 CNS
DMS 114 small cell lung = test system: DMS 114 small cell lung
HOP-18 NSCLC = test system: HOP-18 NSCLC
RXF-631 renal = test system: RXF-631 renal

CCOC(=O)CSc1nnc(CSc2nc(-c3ccccc3)c(-c3ccccc3)[nH]2)n1-c1ccccc1
TGI (KM20L2 colon): 59.2 µM | TGI (DLD-1 colon): > 100 µM | TGI (M19-MEL melanoma): > 100 µM | TGI (LXFL 529 NSCLC): 42.4 µM | TGI (SNB-78 CNS): 68.5 µM | TGI (XF 498 CNS): 46.3 µM | TGI (DMS 114 small cell lung): 39.8 µM

COC(=O)N/N=C(\C(=O)Nc1cccc([N+](=O)[O-])c1)c1nc2ccc([N+](=O)[O-])cc2[nH]c1=O
TGI (KM20L2 colon): 67.3 µM | TGI (DLD-1 colon): > 100 µM | TGI (M19-MEL melanoma): > 100 µM | TGI (HOP-18 NSCLC): > 100 µM | TGI (LXFL 529 NSCLC): > 100 µM | TGI (XF 498 CNS): > 100 µM | TGI (DMS 114 small cell lung): 40.1 µM

CSc1ccc(OCC2OC2O)cc1 (stereo not drawn)
TGI (KM20L2 colon): > 100 µM | TGI (DLD-1 colon): > 100 µM | TGI (M19-MEL melanoma): > 100 µM | TGI (HOP-18 NSCLC): > 100 µM | TGI (LXFL 529 NSCLC): > 100 µM | TGI (SNB-78 CNS): > 100 µM | TGI (XF 498 CNS): 78.7 µM | TGI (DMS 114 small cell lung): 86.3 µM

C/C(=N\NS(=O)(=O)c1ccc(C)cc1)c1cc2ccccc2n1C
TGI (KM20L2 colon): > 100 µM | TGI (DLD-1 colon): > 100 µM | TGI (M19-MEL melanoma): > 100 µM | TGI (LXFL 529 NSCLC): > 100 µM | TGI (DMS 114 small cell lung): > 100 µM

COc1ccc(N2C(=O)c3c(c4[nH]c5ccc(OC)cc5c4c4ccc(C(C)(C)C)cc34)C2=O)cc1
TGI (DLD-1 colon): > 100 µM | TGI (M19-MEL melanoma): > 100 µM | TGI (HOP-18 NSCLC): > 100 µM | TGI (LXFL 529 NSCLC): > 100 µM | TGI (SNB-78 CNS): > 100 µM | TGI (XF 498 CNS): > 100 µM | TGI (DMS 114 small cell lung): > 100 µM

Cc1ccc(NCC(=O)N2CC(=O)Nc3ccccc32)cc1
TGI (KM20L2 colon): > 100 µM | TGI (DLD-1 colon): > 100 µM | TGI (M19-MEL melanoma): > 100 µM | TGI (HOP-18 NSCLC): > 100 µM | TGI (LXFL 529 NSCLC): > 100 µM | TGI (SNB-78 CNS): > 100 µM | TGI (XF 498 CNS): > 100 µM | TGI (DMS 114 small cell lung): > 100 µM

CC(Oc1ccc(OCC2CCCCC2)cc1)C(=O)NCCO (stereo not drawn)
TGI (DLD-1 colon): > 100 µM | TGI (M19-MEL melanoma): > 100 µM | TGI (HOP-18 NSCLC): > 100 µM | TGI (LXFL 529 NSCLC): > 100 µM | TGI (SNB-78 CNS): > 100 µM | TGI (DMS 114 small cell lung): > 100 µM

COC(=O)C1=CC2CC1C(S(=O)(=O)c1ccccc1)C2S(=O)(=O)c1ccccc1 (stereo not drawn)
TGI (KM20L2 colon): 33.2 µM | TGI (RXF-631 renal): 26.9 µM | TGI (DLD-1 colon): 29.8 µM | TGI (M19-MEL melanoma): 42.2 µM | TGI (HOP-18 NSCLC): 30.5 µM | TGI (LXFL 529 NSCLC): 18.6 µM | TGI (DMS 114 small cell lung): 36 µM

CC1(c2cccc(N)c2)C2C(=O)NC(=O)C1C(=O)NC2=O (stereo not drawn)
TGI (KM20L2 colon): > 100 µM | TGI (RXF-631 renal): > 100 µM | TGI (DLD-1 colon): > 100 µM | TGI (M19-MEL melanoma): > 100 µM | TGI (LXFL 529 NSCLC): > 100 µM | TGI (SNB-78 CNS): > 100 µM | TGI (XF 498 CNS): 64.4 µM | TGI (DMS 114 small cell lung): 96.9 µM

CN(C)CCC(CCN(C)C)=NOC(=O)c1ccccc1
TGI (KM20L2 colon): > 100 µM | TGI (RXF-631 renal): > 100 µM | TGI (DLD-1 colon): > 100 µM | TGI (M19-MEL melanoma): > 100 µM | TGI (HOP-18 NSCLC): > 100 µM | TGI (LXFL 529 NSCLC): > 100 µM | TGI (XF 498 CNS): > 100 µM | TGI (DMS 114 small cell lung): > 100 µM

CC1=NN2C(c3ccc(C)cc3)=CSC2=NC(C)(C)C1
TGI (KM20L2 colon): > 100 µM | TGI (DLD-1 colon): > 100 µM | TGI (M19-MEL melanoma): > 100 µM | TGI (HOP-18 NSCLC): > 100 µM | TGI (LXFL 529 NSCLC): > 100 µM | TGI (SNB-78 CNS): > 100 µM | TGI (XF 498 CNS): > 100 µM | TGI (DMS 114 small cell lung): > 100 µM

Cc1ccc(S(=O)(=O)N2c3ccccc3[C@H]3CCC=C[C@H]32)cc1
TGI (KM20L2 colon): 10.3 µM | TGI (RXF-631 renal): > 100 µM | TGI (DLD-1 colon): > 100 µM | TGI (M19-MEL melanoma): 37.8 µM | TGI (HOP-18 NSCLC): > 100 µM | TGI (LXFL 529 NSCLC): > 93.9 µM | TGI (SNB-78 CNS): > 85.7 µM | TGI (XF 498 CNS): 73.7 µM | TGI (DMS 114 small cell lung): 15.1 µM

CC(=O)OC1CC2(C)OC(Cc3ccccc32)O1 (stereo not drawn)
TGI (KM20L2 colon): > 100 µM | TGI (DLD-1 colon): > 100 µM | TGI (M19-MEL melanoma): > 100 µM | TGI (HOP-18 NSCLC): > 100 µM | TGI (SNB-78 CNS): > 100 µM | TGI (XF 498 CNS): > 100 µM | TGI (DMS 114 small cell lung): > 100 µM

c1cnc2c(c1)-n1cccc1C1(CCSC1)NN2 (stereo not drawn)
TGI (DLD-1 colon): > 100 µM | TGI (M19-MEL melanoma): > 100 µM | TGI (HOP-18 NSCLC): > 100 µM | TGI (SNB-78 CNS): > 100 µM | TGI (XF 498 CNS): > 100 µM | TGI (DMS 114 small cell lung): > 100 µM

Cc1ccc2c(c1)C1C(CO2)C(c2ccccc2)=NN1c1ccccc1 (stereo not drawn)
TGI (KM20L2 colon): > 100 µM | TGI (DLD-1 colon): > 100 µM | TGI (M19-MEL melanoma): > 100 µM | TGI (HOP-18 NSCLC): > 100 µM | TGI (LXFL 529 NSCLC): > 100 µM | TGI (SNB-78 CNS): > 100 µM | TGI (DMS 114 small cell lung): > 100 µM

C[C@H](NC(=O)n1c2ccccc2c2ccccc21)C(=O)O
TGI (KM20L2 colon): > 100 µM | TGI (RXF-631 renal): > 100 µM | TGI (DLD-1 colon): > 100 µM | TGI (M19-MEL melanoma): > 100 µM | TGI (HOP-18 NSCLC): > 100 µM | TGI (LXFL 529 NSCLC): > 100 µM | TGI (DMS 114 small cell lung): > 100 µM

Cc1cc2oc(-c3ccccc3)c(C)c(=O)c2c2c1OC(C)(C)S2
TGI (KM20L2 colon): > 100 µM | TGI (RXF-631 renal): > 100 µM | TGI (DLD-1 colon): > 100 µM | TGI (M19-MEL melanoma): > 100 µM | TGI (HOP-18 NSCLC): > 100 µM | TGI (LXFL 529 NSCLC): > 100 µM | TGI (XF 498 CNS): > 100 µM | TGI (DMS 114 small cell lung): > 100 µM

N#Cc1cc([N+](=O)[O-])ccc1NC(=O)C(F)(F)F
TGI (KM20L2 colon): > 100 µM | TGI (DLD-1 colon): > 100 µM | TGI (M19-MEL melanoma): > 100 µM | TGI (HOP-18 NSCLC): > 100 µM | TGI (LXFL 529 NSCLC): > 100 µM | TGI (SNB-78 CNS): > 100 µM | TGI (XF 498 CNS): > 100 µM | TGI (DMS 114 small cell lung): > 56.1 µM

Cc1cc(C)n2c(-c3ccccc3)c(C)cc2n1
TGI (KM20L2 colon): > 100 µM | TGI (RXF-631 renal): > 100 µM | TGI (DLD-1 colon): > 100 µM | TGI (M19-MEL melanoma): > 100 µM | TGI (HOP-18 NSCLC): > 100 µM | TGI (SNB-78 CNS): > 100 µM | TGI (DMS 114 small cell lung): > 100 µM
